One may read the GI50 as the concentration at which growth is held to half of that of the control. Usually pIC50 stands for −log10 of the IC50, conventionally taken in molar units.

pEC50, pIC50: −log10 of the molar value. Bounds are passed on as bounds.

Here are results for 4 compounds from patent publication US10208056B2, “Condensed tricyclic compounds as protein kinase inhibitors” (FUNDACIÓN DEL SECTOR PÚBLICO ESTATAL CENTRO NACIONAL DE …, priority 2015, dated 2019).

For assay [1], the system named is SW620. As to the kind of experiment: In vitro cell proliferation assay (CellTiter-Glo), SW620. Particulars: Homo sapiens, SW-620; growth inhibition, semiquantitative; read-out: GI50 SW620. It counts as cell-based, human. On the procedure:
(§1) The in vitro potency of the compounds was measured by the cell proliferation assay CellTiter-Glo® Luminescent Cell Viability Assay, commercially available from Promega Corp., Madison, Wis. This homogeneous assay method is based on the recombinant expression of Coleoptera luciferase (U.S. Pat. No. 5,583,024; U.S. Pat. No. 5,674,713; U.S. Pat. No. 5,700,670) and determines the number of viable cells in culture based on quantitation of the ATP present, an indicator of metabolically active cells (Crouch et al (1993) J. Immunol. Meth. 160:81-88; U.S. Pat. No. 6,602,677). The CellTiterGlo® Assay was conducted […] it amenable to automated high throughput screening (HTS) (Cree et al (1995) AntiCancer Drugs 6:398-404).
(§2) The homogeneous assay procedure involves adding the single reagent (CellTiter-Glo® Reagent) directly to cells cultured in serum-supplemented medium. Cell washing, removal of medium and multiple pipetting steps are not required. The system detects as few as 15 cells/well in a 96-well format in 10 minutes after adding reagent and mixing.
(§3) The homogeneous “add-mix-measure” format results in cell lysis and generation of a luminescent signal proportional to the amount of ATP present. The amount of ATP is directly proportional to the number of cells present in culture. The CellTiter-Glo® Assay generates a “glow-type” luminescent signal, produced by the luciferase reaction, which has a half-life generally greater than five hours, depending on cell type and medium used. Viable cells are reflected in relative luminescence units (RLU). The substrate, Beetle Luciferin, is oxidatively decarboxylated by recombinant firefly luciferase with concomitant conversion of ATP to AMP and generation of photons. The extended half-life eliminates the need to use reagent injectors and provides flexibility for continuous or batch mode processing of multiple plates. This cell proliferation assay can be used with various multiwell formats, e.g. 96 or 384 well format. Data can be recorded by luminometer or CCD camera imaging device. The luminescence output is presented as relative light units (RLU), measured over time.
Background: ATP-based viability assays read luminescence as a measure of living cells.

Another assay has as its target intracellular CDK8 (Homo sapiens (Human), UniProt P49336). As to the kind of experiment: Cellular CDK8 inhibition assay, western blot P-STAT1 (S727) in IFN-γ treated SW620 cells. It counts as cell-based. Particulars: SW620, IFNγ treated, semiquantitative; read-out: SW620 P-STAT1(S727) w IFNγ. As for the experimental part: Compounds can be screened for their ability to inhibit intracellular CDK8 using a western blot assay to detect phosphorylation of the CDK8 substrate STAT1 (S727) in IFN-γ treated cells. SW620 cells are plated at 1*10^6 cells per well in 6-well plates (Solmeglas 13118) in RPMI media (Sigma-Aldrich R6504) supplemented with 10% foetal bovine serum (Sigma-Aldrich F7524), Penicillin/Streptomycin solution diluted 1:100 (Gibco 15070-063), and fungizone (Gibco, 15290-018), and allowed to adhere overnight at 37° C. in 5% CO2. Compounds are then added to the cell media from a final concentration of 10 μM in 10-fold serial dilutions and the cells are incubated at 37° C. in 5% CO2. After 1 hour, IFNγ (R&D systems Ref. RYD-285-IF-100) is added to a final concentration of […]. After 3 hours of treatment with IFNγ, the cells are washed in PBS, lysed adding 100 μl of protein lysis buffer (62.5 mM Tris pH 6.8 al 6.25%, 2% SDS y 10% glycerol) incubation 10 minutes at room temperature and heating at 95° C. 10 min. The protein content of the lysates is determined by DC protein assay (Biorad, Ref. 5000116). The proteins are resolved by SDS-PAGE and transferred to nitrocellulose membrane (VWR International eurolab, Ref. 732-4007). The membranes are incubated overnight at 4° C. with antibodies specific for total STAT1 (BD Transduction laboratory #610115), phosphoserine-727 STAT1 (Cell Signaling Ref. 9177) they are washed and then incubated with IRDye800 conjugated anti-mouse (Pierce/Cultek, 35521) and Alexa Fluor 680 goat anti-rabbit IgG secondary antibodies (Invitrogen, A21076). The bands are visualized and quantified using an Odyssey infrared imaging system (Li-Cor Biosciences). The percentage of phosphorylated STAT1 vs total STAT1 in cells treated with IFNγ is taken as hundred percent of phosphorylation. The percentage of STAT1 phosphorylation is finally plotted against concentration for each compound and EC50s for intracellular CDK8 inhibition are calculated using ActivityBase from IDBS.
For orientation: A western blot detects proteins with antibodies after separation by electrophoresis.

In the next assay the test system is MDA-MB-231. The experiment in a line: In vitro cell proliferation assay (CellTiter-Glo), MDA-MB-231. It counts as cell-based. Particulars: Homo sapiens, MDA-MB-231; growth inhibition, semiquantitative; read-out: GI50 MDA-MB-231. As for the experimental part:
as §1, §2, §3

The next assay has as its system MV4:11. As to the kind of experiment: In vitro cell proliferation assay (CellTiter-Glo), MV4:11. It counts as cell-based. Particulars: Homo sapiens, MV4-11; growth inhibition, semiquantitative; read-out: GI50 MV4:11. On the procedure:
as §1, §2, §3

The target in a further assay is CDK19/Cyclin C (Homo sapiens (Human), UniProt Q9BWU1). As to the kind of experiment: CDK19/Cyclin C binding assay (LanthaScreen Eu-Kinase Binding Assay). As to conditions: read-out: CDK19-CYCC IC50. On the procedure: The binding assay relies on the LanthaScreen™ Eu-Kinase Binding Assay (Invitrogen).
Assay conditions were as indicated by the kit manufacturers with the following adaptations: • Assay buffer: 50 mM HEPES, pH 7.5, 1 mM EGTA, 0.01% Brij-35, 10 mM MgCl2 • Assay volume: 20 μl • Incubation time and temperature: 60 min at 25° C. • Cdk19-Cyclin C concentration: 2 nM • Tracer concentration: 20 nM • (Eu)-labelled anti-GST antibody concentration: 2 nM • Tested compound: Serial 1:3 dilutions • Final DMSO concentration in the assay: 1%
(§4) Assays were performed in 384-well plates. The final read out was generated using an EnVision plate reader (Perkin-Elmer).
(In general: In TR-FRET formats the signal depends on donor and acceptor labels being close together.)

The target of another assay is CDK8/Cyclin C (Homo sapiens (Human), UniProt P49336). As to the kind of experiment: CDK8/Cyclin C binding assay (LanthaScreen Eu-Kinase Binding Assay). As to conditions: binding assay. As for the experimental part: The enzyme has been purchase from Invitrogen (PV4402) as a dimer of full-length His-tagged recombinant human proteins.
as §4

Another assay relates to Molm13. The experiment in a line: In vitro cell proliferation assay (CellTiter-Glo), Molm13. As to conditions: Homo sapiens, MOLM-13; growth inhibition, semiquantitative; read-out: GI50 Molm13. It counts as cell-based. On the procedure: as §1, §2, §3
The target in a further assay is intracellular HASPIN (Homo sapiens (Human), UniProt Q8TF76). The experiment in a line: Cellular HASPIN inhibition assay, western blot phospho H3T3 in synchronized SW620 cells. It counts as cell-based. As to conditions: semiquantitative, read-out: SW620 PH3(T3) in synchronized cells. As for the experimental part:
Compounds can be screened for their ability to inhibit intracellular HASPIN using a western blot assay to detect phosphorylation of the HASPIN substrate H3T3 in synchronized cells. SW620 cells are plated at 200000 cells per well in 6-well plates (Solmeglas 13118) in RPMI media (Sigma-Aldrich R6504) supplemented with 10% foetal bovine serum (Sigma-Aldrich F7524), Penicillin/Streptomycin solution diluted 1:100 (Gibco 15070-063), and fungizone (Gibco, 15290-018), and allowed to adhere overnight at 37° C. in 5% CO2. Cells are then treated 16 h hours with Nocadazole (Sigma-Aldrich M1404) at 250 ng/ml to arrest them in mitosis. Proteasoma inhibitor MG132 (Sigma-Aldrich C2211) is added to a final concentration of […] to keep cells arrested in mitosis. Compounds are then added to the cell media from a final concentration of 10 μM in 10-fold serial dilutions and the cells are incubated at 37° C. in 5% CO2. After 1 hour and 30 minutes of treatment with the compounds, the cells are washed in PBS, lysed adding 100 μl of protein lysis buffer (62.5 mM Tris pH 6.8 al 6.25%, 2% SDS y 10% glycerol) incubation 10 minutes at room temperature and heating at 95° C. 10 min. The protein content of the lysates is determined by DC protein assay (Biorad, Ref. 5000116). The proteins are resolved by SDS-PAGE and transferred to nitrocellulose membrane (VWR International eurolab, Ref. 732-4007). The membranes are incubated overnight at 4° C. with antibodies specific for total H3 (Millipore #07424), phosphothreonine-3 H3 (Cell Signaling Ref. 14269) they are washed and then incubated with IRDye800 conjugated anti-mouse (Pierce/Cultek, 35521) and Alexa Fluor 680 goat anti-rabbit IgG secondary antibodies (Invitrogen, A21076). The bands are visualized and quantified using an Odyssey infrared imaging system (Li-Cor Biosciences). The percentage of phosphorylated H3 vs total H3 in synchronized cells is taken as hundred percent of phosphorylation. The percentage of H3 phosphorylation is finally plotted against concentration for each compound and EC50s for intracellular HASPIN inhibition are calculated using ActivityBase from IDBS.

The next assay deals with Haspin kinase (Homo sapiens (Human), UniProt Q8TF76). As to the kind of experiment: Haspin kinase assay (ADP-Glo). It counts as biochemical. As to conditions: ATP 150 μM. A digest of the protocol:
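ADP-Glo luminescence measured the intrinsic ATPase activity, without peptide substrate, of the GST-tagged human Haspin kinase domain (20 nM) at 150 μM ATP. Reactions ran 60 min at 30 °C in HEPES pH 7.4 buffer with 10 mM MgCl2 and 1% DMSO. Inhibition was calculated against no-compound controls across 1:3 dilution series.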

The next assay relates to DU145. The experiment in a line: Combination assay, DU145. It counts as cell-based. Particulars: Homo sapiens, DU-145; DU145, chemotherapeutic alone; read-out: Chemo GI50. As for the experimental part: (§5) The combination index (CI) of combinations of certain example compounds and various chemotherapeutic agents in the CellTitetI-Glo® in vitro cell proliferation assays may be tested. A combination index score is calculated by the Chou and Talalay method (CalcuSyn software, Biosoft). The strength of synergy is scored using the ranking system Chou and Talalay: CI less than 0.8 indicates synergy, CI between 0.8 and 1.2 indicates additivity and CI greater than 1.2 indicates antagonism.
The EC50 values of representative combinations are also calculated. The individually measured EC50 values of the chemotherapeutic agent and the example compounds are compared to the EC50 value of the combination. The cell lines are characterised by tumor type. […] Blanco-Aparicio, Carmen; Collazo, Ana Maria Garcia; Oyarzabal, Julen; Leal, Juan F.; Albaran, Maria Isabel; Lima, Francisco Ramos; Pequeno, Belen; Ajenjo, Nuria; Becerra, Mercedes; Alfonso, Patricia; Reymundo, Maria Isabel; Palacios, Irene; Mateos, Genoveva; Quinones, Helena; Corrionero, Ana; Carnero, Amancio; Pevarello, Paolo; Lopez, Ana Rodriguez; Fominaya, Jesus; Pastor, Joaquin; Bischoff, James R. Cancer Letters (Shannon, Ireland) 2011, 300(2), 145-153

Assay [2] has as its system SW620. As to the kind of experiment: Combination assay, SW620. It counts as cell-based, human. As to conditions: Homo sapiens, SW-620; SW620, chemotherapeutic alone; read-out: Chemo GI50. As for the experimental part:
as §5
(§6) The EC50 values of representative combinations are also calculated. The individually measured EC50 values of the chemotherapeutic agent and the example compounds are compared to the EC50 value of the combination. The cell lines are characterised by tumor type. Combination assays are performed as described in: “Pim 1 kinase inhibitor ETP-45299 suppresses cellular proliferation and synergizes with PI3K inhibition”. Blanco-Aparicio, Carmen; Collazo, Ana Maria Garcia; Oyarzabal, Julen; Leal, Juan F.; Albaran, Maria Isabel; Lima, Francisco Ramos; Pequeno, Belen; Ajenjo, Nuria; Becerra, Mercedes; Alfonso, Patricia; Reymundo, Maria Isabel; Palacios, Irene; Mateos, Genoveva; Quinones, Helena; Corrionero, Ana; Carnero, Amancio; Pevarello, Paolo; Lopez, Ana Rodriguez; Fominaya, Jesus; Pastor, Joaquin; Bischoff, James R. Cancer Letters (Shannon, Ireland) 2011, 300(2), 145-153

For another assay, the system named is HCT116. The experiment in a line: Combination assay, HCT116. It counts as cell-based. As to conditions: Homo sapiens, HCT-116; HCT116, chemotherapeutic alone; read-out: Chemo GI50. On the procedure:
as §5, §6

CDK8/Cyclin C, sequence (P49336 whole entry): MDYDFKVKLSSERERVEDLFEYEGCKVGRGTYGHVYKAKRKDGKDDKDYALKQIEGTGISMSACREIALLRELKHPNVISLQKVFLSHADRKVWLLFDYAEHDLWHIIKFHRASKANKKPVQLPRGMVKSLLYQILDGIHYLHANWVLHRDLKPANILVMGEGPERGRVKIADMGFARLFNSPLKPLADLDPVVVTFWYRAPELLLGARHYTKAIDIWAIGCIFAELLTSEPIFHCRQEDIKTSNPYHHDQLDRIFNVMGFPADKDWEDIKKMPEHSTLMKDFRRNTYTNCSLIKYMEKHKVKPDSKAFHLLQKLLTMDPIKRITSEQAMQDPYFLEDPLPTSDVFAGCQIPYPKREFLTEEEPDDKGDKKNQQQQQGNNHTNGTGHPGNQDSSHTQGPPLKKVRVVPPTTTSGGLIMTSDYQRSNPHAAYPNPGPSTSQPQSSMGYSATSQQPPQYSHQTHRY
CDK8/Cyclin C, sequence (P24863 whole entry partner): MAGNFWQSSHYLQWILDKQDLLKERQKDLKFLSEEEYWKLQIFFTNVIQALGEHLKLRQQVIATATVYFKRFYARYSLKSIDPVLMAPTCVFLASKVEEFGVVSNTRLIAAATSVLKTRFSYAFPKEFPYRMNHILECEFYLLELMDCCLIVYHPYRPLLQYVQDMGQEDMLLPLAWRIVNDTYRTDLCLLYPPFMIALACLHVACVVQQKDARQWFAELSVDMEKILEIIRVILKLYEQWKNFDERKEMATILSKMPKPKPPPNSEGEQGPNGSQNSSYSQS
intracellular CDK8, sequence (P49336 whole entry): as the sequence (P49336 whole entry) above
intracellular CDK8, sequence (P24863 whole entry partner): as the sequence (P24863 whole entry partner) above
intracellular CDK8, sequence (Q93074 whole entry partner): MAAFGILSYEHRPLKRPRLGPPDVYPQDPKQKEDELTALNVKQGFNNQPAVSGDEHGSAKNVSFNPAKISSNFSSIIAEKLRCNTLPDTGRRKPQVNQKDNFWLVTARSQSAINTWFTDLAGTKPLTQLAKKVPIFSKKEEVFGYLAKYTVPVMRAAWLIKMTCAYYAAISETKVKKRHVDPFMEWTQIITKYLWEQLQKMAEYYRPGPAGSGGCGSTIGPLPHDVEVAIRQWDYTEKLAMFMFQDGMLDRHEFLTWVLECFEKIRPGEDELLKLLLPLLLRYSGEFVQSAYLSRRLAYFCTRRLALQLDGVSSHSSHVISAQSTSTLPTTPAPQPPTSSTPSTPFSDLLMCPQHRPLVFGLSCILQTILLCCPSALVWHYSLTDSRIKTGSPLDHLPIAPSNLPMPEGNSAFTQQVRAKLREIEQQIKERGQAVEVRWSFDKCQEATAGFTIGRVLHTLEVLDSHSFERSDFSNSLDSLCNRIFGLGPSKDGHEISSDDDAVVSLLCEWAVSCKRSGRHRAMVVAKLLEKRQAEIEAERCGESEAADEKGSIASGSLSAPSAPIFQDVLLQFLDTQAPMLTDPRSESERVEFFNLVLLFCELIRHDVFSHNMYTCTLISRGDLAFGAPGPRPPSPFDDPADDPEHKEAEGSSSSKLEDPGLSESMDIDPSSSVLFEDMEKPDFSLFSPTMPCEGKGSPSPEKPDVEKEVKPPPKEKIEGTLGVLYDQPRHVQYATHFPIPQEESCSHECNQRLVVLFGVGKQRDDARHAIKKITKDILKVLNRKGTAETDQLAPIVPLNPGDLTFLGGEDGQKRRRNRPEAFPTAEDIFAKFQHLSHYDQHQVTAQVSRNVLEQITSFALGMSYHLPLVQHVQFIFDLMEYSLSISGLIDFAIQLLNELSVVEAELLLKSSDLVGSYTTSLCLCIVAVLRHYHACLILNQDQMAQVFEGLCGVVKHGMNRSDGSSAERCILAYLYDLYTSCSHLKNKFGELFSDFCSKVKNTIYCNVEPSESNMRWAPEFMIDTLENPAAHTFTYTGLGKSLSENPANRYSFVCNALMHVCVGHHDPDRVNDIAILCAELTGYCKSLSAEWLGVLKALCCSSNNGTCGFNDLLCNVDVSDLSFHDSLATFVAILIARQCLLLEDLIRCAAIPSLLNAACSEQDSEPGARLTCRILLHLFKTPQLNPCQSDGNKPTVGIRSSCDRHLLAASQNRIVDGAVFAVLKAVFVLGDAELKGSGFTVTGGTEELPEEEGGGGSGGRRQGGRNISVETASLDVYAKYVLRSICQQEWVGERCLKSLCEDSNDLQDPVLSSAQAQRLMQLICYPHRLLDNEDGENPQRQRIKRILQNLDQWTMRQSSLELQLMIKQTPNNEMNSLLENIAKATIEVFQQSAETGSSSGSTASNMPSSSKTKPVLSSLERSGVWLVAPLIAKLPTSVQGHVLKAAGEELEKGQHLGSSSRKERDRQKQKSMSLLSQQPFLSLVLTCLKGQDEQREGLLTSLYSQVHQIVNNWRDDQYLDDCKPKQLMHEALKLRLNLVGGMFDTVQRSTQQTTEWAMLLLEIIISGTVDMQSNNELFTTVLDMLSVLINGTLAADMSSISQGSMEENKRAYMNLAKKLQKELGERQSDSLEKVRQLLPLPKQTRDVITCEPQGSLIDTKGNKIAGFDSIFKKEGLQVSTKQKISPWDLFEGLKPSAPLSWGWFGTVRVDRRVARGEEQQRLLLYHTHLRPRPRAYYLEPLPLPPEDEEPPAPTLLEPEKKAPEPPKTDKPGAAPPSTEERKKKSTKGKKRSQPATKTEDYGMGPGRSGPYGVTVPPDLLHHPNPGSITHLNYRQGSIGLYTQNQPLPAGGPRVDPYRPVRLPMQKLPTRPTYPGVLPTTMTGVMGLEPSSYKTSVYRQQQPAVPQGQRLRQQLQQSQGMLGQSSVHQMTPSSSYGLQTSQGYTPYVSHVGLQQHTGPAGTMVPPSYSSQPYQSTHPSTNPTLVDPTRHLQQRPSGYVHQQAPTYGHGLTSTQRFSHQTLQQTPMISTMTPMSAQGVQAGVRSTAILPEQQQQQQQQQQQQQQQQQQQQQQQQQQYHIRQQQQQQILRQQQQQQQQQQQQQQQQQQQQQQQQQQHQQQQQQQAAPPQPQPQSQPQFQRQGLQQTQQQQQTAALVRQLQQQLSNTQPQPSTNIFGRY
Haspin kinase, sequence (Q8TF76 484-798): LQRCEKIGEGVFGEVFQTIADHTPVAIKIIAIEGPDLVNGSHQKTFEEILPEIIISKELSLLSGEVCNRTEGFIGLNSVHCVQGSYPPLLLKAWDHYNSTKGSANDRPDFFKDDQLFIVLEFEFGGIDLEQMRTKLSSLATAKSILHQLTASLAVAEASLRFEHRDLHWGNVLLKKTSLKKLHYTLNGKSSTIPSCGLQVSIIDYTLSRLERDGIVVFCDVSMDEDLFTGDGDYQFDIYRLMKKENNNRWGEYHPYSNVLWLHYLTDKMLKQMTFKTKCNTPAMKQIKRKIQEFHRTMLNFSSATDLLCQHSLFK
CDK19/Cyclin C, sequence (Q9BWU1 whole entry): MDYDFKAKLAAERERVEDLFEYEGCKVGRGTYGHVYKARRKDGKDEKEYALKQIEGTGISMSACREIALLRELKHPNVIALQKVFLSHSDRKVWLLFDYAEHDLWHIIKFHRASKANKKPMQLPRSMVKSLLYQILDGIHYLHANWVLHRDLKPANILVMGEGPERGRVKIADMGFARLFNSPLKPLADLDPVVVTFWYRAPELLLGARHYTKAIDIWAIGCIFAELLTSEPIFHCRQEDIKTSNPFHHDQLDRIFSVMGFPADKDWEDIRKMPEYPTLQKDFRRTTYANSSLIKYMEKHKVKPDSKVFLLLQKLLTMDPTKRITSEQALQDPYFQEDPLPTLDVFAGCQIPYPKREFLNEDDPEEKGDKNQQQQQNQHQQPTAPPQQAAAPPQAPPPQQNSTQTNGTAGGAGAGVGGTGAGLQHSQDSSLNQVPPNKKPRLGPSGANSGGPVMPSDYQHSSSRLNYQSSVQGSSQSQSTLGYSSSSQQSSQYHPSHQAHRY
CDK19/Cyclin C, sequence (P24863 whole entry partner): as the sequence (P24863 whole entry partner) above
intracellular HASPIN, sequence (Q8TF76 whole entry): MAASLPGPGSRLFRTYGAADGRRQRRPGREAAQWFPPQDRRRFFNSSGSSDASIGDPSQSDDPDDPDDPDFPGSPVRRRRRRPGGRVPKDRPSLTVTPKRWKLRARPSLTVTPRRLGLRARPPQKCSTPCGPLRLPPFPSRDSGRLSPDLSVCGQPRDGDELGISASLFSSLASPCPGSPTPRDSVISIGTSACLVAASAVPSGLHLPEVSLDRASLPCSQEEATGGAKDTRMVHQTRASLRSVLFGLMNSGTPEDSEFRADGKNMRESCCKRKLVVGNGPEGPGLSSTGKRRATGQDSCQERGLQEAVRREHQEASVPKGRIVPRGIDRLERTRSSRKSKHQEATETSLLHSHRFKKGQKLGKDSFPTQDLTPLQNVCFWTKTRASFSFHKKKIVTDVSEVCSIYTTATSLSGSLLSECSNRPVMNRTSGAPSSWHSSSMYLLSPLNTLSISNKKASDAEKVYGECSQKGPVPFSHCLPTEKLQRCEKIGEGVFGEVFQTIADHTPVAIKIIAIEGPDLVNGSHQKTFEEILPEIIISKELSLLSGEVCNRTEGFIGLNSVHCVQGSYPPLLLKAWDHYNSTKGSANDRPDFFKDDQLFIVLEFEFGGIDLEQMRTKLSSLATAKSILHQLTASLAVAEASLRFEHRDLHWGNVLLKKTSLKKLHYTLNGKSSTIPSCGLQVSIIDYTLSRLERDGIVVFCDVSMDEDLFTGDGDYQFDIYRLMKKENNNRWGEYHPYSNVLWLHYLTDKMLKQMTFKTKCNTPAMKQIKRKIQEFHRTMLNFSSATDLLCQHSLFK

Consider `NC(=O)c1cc2c([nH]1)-c1ccncc1O[C@@H]2C1CCCCC1` (single isomer, unassigned) [Example 69], for which the GI50 in the assay with SW620 [1] was below 1000 nM; in the assay with MDA-MB-231 it was 1 to 10 µM; in the assay with MV4:11 it was below 1000 nM; with Molm13, below 1000 nM. Moreover, on intracellular CDK8, the pEC50 was above 6.30. For the same compound, the pIC50 was 7.06 on CDK19/Cyclin C and 7.71 at CDK8/Cyclin C.

Consider `NC(=O)c1cc2c([nH]1)-c1ccncc1O[C@@H]2C1CCOCC1` (single isomer, unassigned) [Example 71], for which the pEC50 at intracellular CDK8 and at intracellular HASPIN was 5.00 to 6.30 each time. Also, the pIC50 at Haspin kinase is 5.24; on CDK8/Cyclin C it was 6.55.

Turning to `COc1cc(Nc2ncc3c(n2)-c2ccc(Cl)cc2C(c2c(F)cccc2OC)=NC3)ccc1C(=O)O` [Alisertib, alisertib, reference compound], the 50% growth inhibitory concentration (GI50) in the assay on DU145 came to 12.5 µM; with SW620 [2], 500 nM; in the assay with HCT116 it was 12.5 µM.

As to `COCCn1c(C(N)=O)cc2c1-c1ccncc1OC2(C)C` [Example 45], the pEC50 at intracellular CDK8 and on intracellular HASPIN was above 6.30 throughout. Further, the pIC50 at CDK19/Cyclin C was 7.94; against Haspin kinase, 6.74; at CDK8/Cyclin C it was 8.33.
